Test results as given in patent US4956363A, “Treatment of cognitive and behavioral disorders associated with aging and with dementia syndromes” (U C B S.A., priority 1988, dated 1990).

How the values were obtained:
male NMRI mice = test: Toxicity, Irwin's test; assay type: in vivo
Protocol: Progressive doses of the compound to be tested are administered intraperitoneally to groups of three mice until the lethal dose is reached (dose which causes the death of two animals out of three within 48 hours).

[1] = tested on: learning of the avoidance reflex; test: Multiple-trial passive avoidance: learning; assay type: in vivo, rats (male Sprague-Dawley); details: i.p. at the dose (mg/kg) of the line in Table V, 30 min before test; criterion 180 seconds on the mat
Protocol: To evaluate whether a compound can promote learning, the following test is carried out.
This experiment is repeated until the animal remains on the rubber mat for at least 180 seconds in order to avoid the electric shock. The learning is expressed by the average number of trials needed to reach a period of 180 seconds remaining on the mat.
A period of remaining on the rubber mat of 180 seconds is regarded as being the maximum performance which can be realized by the animal to avoid the electric shock. Rats which remain on the mat for this period have acquired the avoidance reflex and are replaced in their original cage without receiving the electric shock.
group 1 receives an intraperitoneal injection of physiological salt solution:
group 2 receives an intraperitoneal injection of the compound to be tested:
Columns 3 and 4 show the results obtained in the test used to evaluate the learning. The figures indicate the average number of trials needed for a control animal (group 1) or an animal treated (group 2) with the compound to learn to remain on the rubber mat for 180 seconds in order to avoid the electric shock. The results were analyzed by the Student test.

[2] = tested on: amnesia induced by scopolamine; test: Multiple-trial passive avoidance: mnemic retention (amnesia induced by scopolamine); details: compound i.p. at the dose of the line + scopolamine 0.5 mg i.p.
Protocol: To this end, the method of multiple-trial passive avoidance has been used. This method is well-known for evaluating the effects which a product exerts on the memory and learning (A. FINE et al., Proc. Natl. Acad. Sci. U.S.A., 82, (1985), 5227-5230).
The test is carried out on male Sprague-Dawley rats (160-200 g). which are kept in standard cages throughout the experiment.
The apparatus used is a transparent square cage with 35 cm sides and 25 cm high, fitted with a grid floor which can be electrified. An insulating rubber mat (10×17 cm) is placed on the floor in one of the corners of the cage.
Each animal is subjected to four tests at times 0, 4, 24 and 28 hours. In the first test (time 0), the animal is placed on the rubber mat and the time which it takes to decide to leave this position to explore the cage is recorded. After 20 seconds of exploration, the rat receives an electric shock (3 seconds duration) in the paws, causing a flight reaction. The rat is immediately removed from the apparatus and replaced in its original cage. In the course of the three subsequent tests (times: 4, 24 and 28 hours), the animal is replaced on the rubber mat and the time taken to leave this position is recorded. When the four paws of the animal rest on the grid, it receives an electric shock and is immediately removed from the apparatus.
At the start of the experiment, the rats are divided into 4 homogeneous groups of 15 animals. Thirty minutes before each test, each group of animals is subjected to a predetermined treatment:
Groups 1 and 2 are used in the first experiment and groups 3 and 4 are used in the second experiment.
The differences observed are analyzed statistically by the Mann-Whitney method.

[3] = mice, i.p., death of two animals out of three within 48 hours

Structure (SMILES) | Lethal dose (male NMRI mice; [3]) | other results
CCCc1nc(N2CCOCC2)nc(N(CCOC(C)=O)C(C)=O)n1 | 351 mg/kg | 
CCCc1nc(NN(C)C)nc(N2CCOCC2)n1 | 799 mg/kg | Learning, average number of trials (group 2) [1]: 1.53; Period of remaining on the mat, group 4, 4 hours [2]: 55.3 s; Period of remaining on the mat, group 4, 24 hours [2]: 57.7 s; Period of remaining on the mat, group 4, 28 hours [2]: 87.9 s
CCCc1nc(NC(CO)C(O)c2ccccc2)nc(N2CCOCC2)n1 (centres unmarked) [Compound 15] | 1121 mg/kg | 
CCCc1nc(N2CCOCC2)nc(N(C)C(C)=O)n1 [listing 1 of 2 here] | 838 mg/kg | Learning, average number of trials (group 2) [1]: 2.07; Period of remaining on the mat, group 4, 24 hours [2]: 34.7 s; Period of remaining on the mat, group 4, 28 hours [2]: 44.5 s
CCCc1nc(NCC(O)CC)nc(N2CCOCC2)n1 (centres unmarked) [Compound 6] | 886 mg/kg | 
CCCc1nc(NCCOC(=O)Cc2ccccc2)nc(N2CCOCC2)n1 [Compound 40] | 1157 mg/kg | 
CCCc1nc(NCC(O)CO)nc(N2CCOCC2)n1 (centres unmarked) [Compound 11] | 892 mg/kg | 
CCCc1nc(NCCOC)nc(N2CCOCC2)n1 [Compound 10, 2-[(2-methoxyethyl)amino]-4-morpholino-6-propyl-1,3,5-triazine] | 844 mg/kg | Learning, average number of trials (group 2) [1]: 2.07; Period of remaining on the mat, group 4, 4 hours [2]: 15.7 s; Period of remaining on the mat, group 4, 24 hours [2]: 31.1 s; Period of remaining on the mat, group 4, 28 hours [2]: 34.1 s
CCCc1nc(NCCOC(=O)c2ccccc2)nc(N2CCOCC2)n1 [Compound 39] | > 1114 mg/kg | 
CCCc1nc(NCCOC(N)=O)nc(N2CCOCC2)n1 [Compound 42, 2-[[2-[(Aminocarbonyl)oxy]ethyl]amino]-4-morpholino-6-propyl-1,3,5-triazine] | > 931 mg/kg | 
CCCc1nc(NC(C)=O)nc(N2CCOCC2)n1 [listing 1 of 2 here] | 996 mg/kg | Learning, average number of trials (group 2) [1]: 1.53; Period of remaining on the mat, group 4, 4 hours [2]: 60.4 s; Period of remaining on the mat, group 4, 24 hours [2]: 74.6 s; Period of remaining on the mat, group 4, 28 hours [2]: 102.4 s
CCCc1nc(N2CCOCC2)nc(N(CCO)Cc2ccccc2)n1 [Compound 14] | > 1073 mg/kg | 
CCCc1nc(NC(C)(C)CO)nc(N2CCOCC2)n1 [Compound 8] | 886 mg/kg | 
CCCc1nc(NC(C)(CO)CO)nc(N2CCOCC2)n1 [Compound 13] | 934 mg/kg | 
CCCc1nc(N2CCOCC2)nc(N(C)C(=O)c2ccc(OC)c(OC)c2)n1 [Compound 35] | 401 mg/kg | 
CCCc1nc(NC(=O)c2ccccc2)nc(N2CCOCC2)n1.Cl |  | Learning, average number of trials (group 2) [1]: 1.0; Period of remaining on the mat, group 4, 4 hours [2]: 70.9 s; Period of remaining on the mat, group 4, 24 hours [2]: 82.8 s; Period of remaining on the mat, group 4, 28 hours [2]: 137.6 s; Lethal dose (male NMRI mice; mouse, in vivo, ip): 1091 mg/kg
CCCc1nc(NC(=O)c2ccc(C)cc2)nc(N2CCOCC2)n1 [Compound 33] | 1132 mg/kg | 
CCCc1nc(NCCOC(C)=O)nc(N2CCOCC2)n1 | 928 mg/kg | Learning, average number of trials (group 2) [1]: 1.3; Period of remaining on the mat, group 4, 24 hours [2]: 44.4 s; Period of remaining on the mat, group 4, 28 hours [2]: 49.9 s
CCCc1nc(N2CCOCC2)nc(N(C)C(C)=O)n1 [listing 2 of 2 here] | 947 mg/kg | 
CCCc1nc(NC(=O)N(C)C)nc(N2CCOCC2)n1 [Compound 41, N,N-Dimethyl-N'-(4-morpholino-6-propyl-1,3,5-triazin-2-yl)-urea] | 294 mg/kg | Learning, average number of trials (group 2) [1]: 1.33; Period of remaining on the mat, group 4, 4 hours [2]: 15.8 s; Period of remaining on the mat, group 4, 24 hours [2]: 27.3 s; Period of remaining on the mat, group 4, 28 hours [2]: 66.3 s
CCCc1nc(NC(=O)c2ccc(Cl)cc2)nc(N2CCOCC2)n1 [Compound 29] | 398 mg/kg | 
CCCc1nc(NCCCO)nc(N2CCOCC2)n1 [Compound 3] | 844 mg/kg | 

Structure (SMILES) | Lethal dose (male NMRI mice; [3]) | other results
CCCc1nc(NC(=O)c2ccc(OC)cc2)nc(N2CCOCC2)n1 [Compound 31] | 511 mg/kg | 
CCCc1nc(N2CCOCC2)nc(N(C)C(=O)c2ccc(Cl)cc2)n1 [Compound 30] | 1125 mg/kg | 
CCCc1nc(NC(CC)CO)nc(N2CCOCC2)n1 (centres unmarked) | 886 mg/kg | Learning, average number of trials (group 2) [1]: 2.57; Period of remaining on the mat, group 4, 24 hours [2]: 22.5 s; Period of remaining on the mat, group 4, 28 hours [2]: 52.1 s
CCCc1nc(NC(=O)Oc2ccccc2)nc(N2CCOCC2)n1 [Compound 28, phenyl (4-morpholino-6-propyl-1,3,5-triazin-2-yl)carbamate] | > 1030 mg/kg | 
CCCc1nc(N2CCOCC2)nc(N(C)C(=O)C(C)C)n1 | 922 mg/kg | 
CCCc1nc(NC(=O)c2ccc(C)c(C)c2)nc(N2CCOCC2)n1 [Compound 36] | 1174 mg/kg | 
CCCc1nc(NC(=O)C(C)C)nc(N2CCOCC2)n1 [Compound 24] | 880 mg/kg | 
CCCc1nc(NO)nc(N2CCOCC2)n1 [Compound 2, 2-(hydroxyamino)-4-morpholino-6-propyl-1,3,5-triazine] | 718 mg/kg | 
CCCc1nc(NC(=O)Cc2ccccc2)nc(N2CCOCC2)n1 [Compound 23] | > 1024 mg/kg | 
CCCc1nc(N2CCOCC2)nc(N(C)C(=O)c2ccccc2)n1.Cl |  | Learning, average number of trials (group 2) [1]: 1.13; Period of remaining on the mat, group 4, time 0 ([2]; 0 h): 11.3 s; Period of remaining on the mat, group 4, 4 hours [2]: 88.6 s; Period of remaining on the mat, group 4, 24 hours [2]: 111.5 s; Period of remaining on the mat, group 4, 28 hours [2]: 133.5 s; Lethal dose (male NMRI mice; mouse, in vivo, ip): 1133 mg/kg
CCCc1nc(N2CCOCC2)nc(N2CCCC2CO)n1 (centres unmarked) [Compound 19] | 1031 mg/kg | 
CCCc1nc(N2CCOCC2)nc(N(C)C(=O)c2ccc(OC)cc2)n1 [Compound 32] | 1222 mg/kg | 
CCCc1nc(NC(C)=O)nc(N2CCOCC2)n1 [listing 2 of 2 here] | 905 mg/kg | 
CCCc1nc(NC[C@H](C)O)nc(N2CCOCC2)n1 [Compound 16, (S)-3-[(4-morpholino-6-propyl-1,3,5-triazin-2-yl)amino]-2-propanol] | 844 mg/kg | 
CCCc1nc(NCC2(O)CCCCC2)nc(N2CCOCC2)n1 [Compound 18] | 1007 mg/kg | 
CCCc1nc(NC(CO)(CO)CO)nc(N2CCOCC2)n1 [Compound 12] | 982 mg/kg | 
CCCc1nc(NCC(C)O)nc(N2CCOCC2)n1 (centres unmarked) [Compound 5] | 563 mg/kg | 
CCCc1nc(NCCOC(=O)C(C)C)nc(N2CCOCC2)n1 [Compound 38] | > 1012 mg/kg | 
CCCc1nc(NC[C@@H](C)O)nc(N2CCOCC2)n1 [Compound 17, (R)-3-[(4-morpholino-6-propyl-1,3.5-triazin-2-yl)amino]-2-propanol] | 844 mg/kg | 
CCCc1nc(N2CCOCC2)nc(N(C)C(=O)c2ccc(C)cc2)n1 [Compound 34] | 1174 mg/kg | 
CCCc1nc(NCCCCO)nc(N2CCOCC2)n1 [Compound 4] | 886 mg/kg | 
